Bounds are passed on as bounds.

This assay relates to HCV 1b_Huh-Luc/Neo-ET cell line persistently expressing a bicistronic genotype 1b replicon in Huh 7 cells. Description: HCV replicon assay, luciferase enzyme activity readout. As to conditions: Hepatitis C virus, 72 h incubation, average EC50 range, read-out: Inhibition of HCV genotype 1b. The format is cell-based. As to the method:
Biological activity of the compounds of the invention was determined using an HCV replicon assay. The HCV 1b_Huh-Luc/Neo-ET cell line persistently expressing a bicistronic genotype 1b replicon in Huh 7 cells was obtained from ReBLikon GMBH. This cell line was used to test compound inhibition using luciferase enzyme activity readout as a measurement of compound inhibition of replicon levels.
On Day 1 (the day after plating cells), each compound is added in triplicate to the cells. Plates are incubated for 72 h prior to determining luciferase levels. Enzyme activity was measured using a Bright-Glo Kit (cat. number E2620) manufactured by Promega Corporation. The following equation was used to generate a percent control value for each compound. % Control=(Compound Luciferase Level/Control Luciferase Level)*100
The EC50 value was determined using GraphPad Prism and the following equation: Y=Bottom asymptote+(Top asymptote−Bottom asymptote)/(1+10^((Log EC50−X)*HillSlope))
EC50 values of compounds are determined several times in the replicon assay to generate average EC50 values. […]
Take `COC(=O)N[C@H](C(=O)N1CCC[C@H]1c1ncc(-c2ccc3c(c2)c(=O)c2ccc(-c4cnc([C@@H]5CCCN5C(=O)[C@@H](NC(=O)OC)C(C)C)[nH]4)cc2n3C)[nH]1)C(C)C` [Compound 11]: the EC50 was under 1 nM.

As for `COC(=O)N[C@H](C(=O)N1CCC[C@H]1c1ncc(-c2ccc3oc4cc(-c5cnc([C@@H]6CCCN6C(=O)[C@@H](NC(=O)OC)C(C)C)[nH]5)c(F)cc4c(=O)c3c2)[nH]1)C(C)C` [Compound 22], the EC50 is under 1 nM.

Turning to `COC(=O)N[C@H](C(=O)N1CCC[C@H]1c1ncc(-c2ccc3c(c2)Cc2cc(F)c(-c4cnc([C@@H]5CCCN5C(=O)[C@@H](NC(=O)OC)[C@@H](C)OC)[nH]4)cc2O3)[nH]1)C1CCOCC1` [Compound 42], the EC50 is under 1 nM.

For `COC(=O)N[C@H](C(=O)N1CCC[C@H]1c1ncc(-c2ccc3oc4cc(-c5cnc([C@@H]6CCCN6C(=O)[C@@H](NC(=O)OC)C(C)C)[nH]5)c(Cl)cc4c(=O)c3c2)[nH]1)C(C)C` [Compound 49], the EC50 was under 1 nM.

On to `COC(=O)N[C@H](C(=O)N1CCC[C@H]1c1ncc(-c2ccc3c(c2)Oc2ccc(-c4cnc([C@@H]5CCCN5C(=O)[C@@H](NC(=O)OC)C5CCOCC5)[nH]4)cc2O3)[nH]1)C1CCOCC1` [Compound 35], for which the EC50 was under 1 nM.

For the molecule `CC[C@H](C)[C@H](NC(=O)OC)C(=O)N1CCC[C@H]1c1ncc(-c2ccc3oc4cc(-c5cnc([C@@H]6CCCN6C(=O)[C@@H](NC(=O)OC)[C@@H](C)CC)[nH]5)c(Cl)cc4c(=O)c3c2)[nH]1` [Compound 51], the EC50 was under 1 nM.

For `COC(=O)N[C@@H](C(=O)N1CCC[C@H]1c1ncc(-c2ccc3nc4cc(-c5cnc([C@@H]6CCCN6C(=O)[C@H](NC(=O)OC)c6ccccc6)[nH]5)ccc4nc3c2)[nH]1)c1ccccc1` [Compound 2], the EC50 is under 1 nM.

As to `COC(=O)N[C@@H](C(=O)N1CCOC[C@H]1c1ncc(-c2ccc3c(c2)Oc2ccc(-c4cnc([C@@H]5COCCN5C(=O)[C@H](NC(=O)OC)c5ccccc5)[nH]4)cc2O3)[nH]1)c1ccccc1` [Compound 65], the EC50 is under 1 nM.

Regarding `COC(=O)N[C@H](C(=O)N1CCC[C@H]1c1ncc(-c2ccc3c(c2)Cc2ccc(-c4cnc([C@@H]5CCCN5C(=O)[C@@H](NC(=O)OC)C5CCCC5)[nH]4)cc2O3)[nH]1)C1CCCC1` [Compound 32], the EC50 was under 1 nM.

Turning to `COC(=O)N[C@H](C(=O)N1CCC[C@H]1c1ncc(-c2ccc3c(c2)Oc2ccc(-c4cnc([C@@H]5CCCN5C(=O)[C@@H](NC(=O)OC)C(C)C)[nH]4)cc2C3(C)C)[nH]1)C(C)C` [Compound 10], the EC50 is under 1 nM.

With `COC(=O)N[C@@H](C(=O)N1CCC[C@H]1c1ncc(-c2ccc3c(c2)Cc2cc(-c4cnc([C@@H]5CCCN5C(=O)[C@H](NC(=O)OC)c5ccccc5)[nH]4)ccc2O3)[nH]1)c1ccccc1` [Compound 5], the EC50 is under 1 nM.

As for `COC(=O)N[C@@H](C(=O)N[C@@H](C)c1ncc(-c2ccc3c(c2)Oc2ccc(-c4cnc([C@H](C)NC(=O)[C@H](NC(=O)OC)c5ccccc5)[nH]4)cc2O3)[nH]1)c1ccccc1` [Compound 38], the EC50 was under 1 nM.

On to `CC[C@H](C)[C@H](NC(=O)OC)C(=O)N1CCC[C@H]1c1ncc(-c2cc3c(cc2F)Cc2cc(-c4cnc([C@@H]5CCCN5C(=O)[C@@H](NC(=O)OC)[C@@H](C)OC)[nH]4)ccc2O3)[nH]1` [Compound 54], for which the EC50 is under 1 nM.

Consider `COC(=O)N[C@H](C(=O)N1CCC[C@H]1c1ncc(-c2ccc3oc4cc(-c5cnc([C@@H]6CCCN6C(=O)[C@@H](NC(=O)OC)[C@@H](C)OC)[nH]5)c(Cl)cc4c(=O)c3c2)[nH]1)[C@@H](C)OC` [Compound 50], for which the EC50 is under 1 nM.

`COC(=O)N[C@H](C(=O)N1CCC[C@H]1c1ncc(-c2cc3c(cc2F)Cc2cc(-c4cnc([C@@H]5CCCN5C(=O)[C@@H](NC(=O)OC)[C@@H](C)OC)[nH]4)ccc2O3)[nH]1)C(C)C` [Compound 29]: the EC50 was under 1 nM.

On to `O=C(N[C@@H](C(=O)N1CCC[C@H]1c1ncc(-c2ccc3oc4cc(-c5cnc([C@@H]6CCCN6C(=O)[C@H](NC(=O)OC6CCOCC6)c6ccccc6)[nH]5)c(F)cc4c(=O)c3c2)[nH]1)c1ccccc1)OC1CCOCC1` [Compound 25], for which the EC50 was under 1 nM.

On to `COC(=O)N[C@H](C(=O)N1CCC[C@H]1c1ncc(-c2cc3oc4ccc(-c5cnc([C@@H]6CCCN6C(=O)[C@@H](NC(=O)OC)C6CCOCC6)[nH]5)cc4c(=O)c3cc2F)[nH]1)C(C)C` [Compound 28], for which the EC50 was under 1 nM.

On to `COC(=O)N[C@H](C(=O)N1CCC[C@H]1c1ncc(-c2ccc3c(=O)c4cc(-c5cnc([C@@H]6CCCN6C(=O)[C@@H](NC(=O)OC)C6CCOCC6)[nH]5)ccc4oc3c2)[nH]1)C(C)C` [Compound 16], for which the EC50 is under 1 nM.

As for `COC(=O)N[C@H](C(=O)N[C@@H](C)c1ncc(-c2ccc3c(c2)Oc2ccc(-c4cnc([C@H](C)NC(=O)[C@@H](NC(=O)OC)C(C)C)[nH]4)cc2O3)[nH]1)C(C)C` [Compound 39], the EC50 is under 1 nM.

On to `COC(=O)N[C@@H](C(=O)N1CCC[C@H]1c1ncc(-c2ccc3oc4cc(-c5cnc([C@@H]6CCCN6C(=O)[C@H](NC(=O)OC)c6ccccc6)[nH]5)c(F)cc4c(=O)c3c2)[nH]1)c1ccccc1` [Compound 24], for which the EC50 was under 1 nM.

Consider `COC(=O)N[C@H](C(=O)N1CCC[C@H]1c1ncc(-c2ccc3nc4cc(-c5cnc([C@@H]6CCCN6C(=O)[C@@H](NC(=O)OC)C(C)C)[nH]5)ccc4nc3c2)[nH]1)C(C)C` [Compound 1], for which the EC50 is under 1 nM.

For `CC(C)(C)OC(=O)N1CCC[C@H]1c1ncc(-c2ccc3c(=O)c4cc(-c5cnc([C@@H]6CCCN6C(=O)OC(C)(C)C)[nH]5)ccc4oc3c2)[nH]1` [Compound 9], the EC50 was in the range of 10 to 999 nM.

In the case of `CC[C@H](C)[C@H](NC(=O)OC)C(=O)N1CCC[C@H]1c1ncc(-c2cc3c(cc2F)Cc2cc(-c4cnc([C@@H]5CCCN5C(=O)[C@H](COC)NC(=O)OC)[nH]4)ccc2O3)[nH]1` [Compound 60], the EC50 is under 1 nM.

With `COC(=O)N[C@H](C(=O)N1CCC[C@H]1c1ncc(-c2ccc3c(c2)Oc2ccc(-c4cnc([C@@H]5CCCN5C(=O)[C@@H](NC(=O)OC)C(C)C)[nH]4)cc2C(=O)N3)[nH]1)C(C)C` [Compound 14], the EC50 lay in the range of 10 to 999 nM.

On to `COC(=O)N[C@H](C(=O)N1CSC[C@H]1c1ncc(-c2ccc3c(c2)Oc2ccc(-c4cnc([C@@H]5CSCN5C(=O)[C@@H](NC(=O)OC)C(C)C)[nH]4)cc2O3)[nH]1)C(C)C` [Compound 36], for which the EC50 was under 1 nM.

`COC(=O)N[C@H](C(=O)N1CCC[C@H]1c1ncc(-c2ccc3c(=O)c4cc(-c5cnc([C@@H]6CCCN6C(=O)[C@@H](NC(=O)OC)C(C)C)[nH]5)ccc4oc3c2)[nH]1)C(C)C` [Compound 8]: the EC50 is under 1 nM.

With `COC(=O)N[C@H](C(=O)N1CCC[C@H]1c1ncc(-c2ccc3c(=O)c4cc(-c5cnc([C@@H]6CCCN6C(=O)[C@H](NC(=O)OC)c6ccccc6)[nH]5)ccc4oc3c2)[nH]1)C(C)C` [Compound 15], the EC50 was under 1 nM.

Turning to `COC(=O)N[C@H](C(=O)N1CCC[C@H]1c1ncc(-c2ccc3oc4cc(-c5cnc([C@@H]6CCCN6C(=O)[C@@H](NC(=O)OC)C6CCOCC6)[nH]5)ccc4c(=O)c3c2)[nH]1)C(C)C` [Compound 17], the EC50 was under 1 nM.

On to `COC(=O)N[C@H](C(=O)N1CCCC[C@H]1c1ncc(-c2ccc3c(c2)Oc2ccc(-c4cnc([C@@H]5CCCCN5C(=O)[C@@H](NC(=O)OC)C(C)C)[nH]4)cc2O3)[nH]1)C(C)C` [Compound 47], for which the EC50 is under 1 nM.

Turning to `COC(=O)N[C@H](C(=O)N1CCC[C@H]1c1ncc(-c2ccc3c(c2)Oc2ccc(-c4cnc([C@@H]5CCCN5C(=O)[C@@H](NC(=O)OC)C5CCCC5)[nH]4)cc2O3)[nH]1)C1CCCC1` [Compound 33], the EC50 is under 1 nM.

In the case of `COC[C@H](NC(=O)OC)C(=O)N1CCC[C@H]1c1ncc(-c2ccc3c(c2)Cc2cc(F)c(-c4cnc([C@@H]5CCCN5C(=O)[C@@H](NC(=O)OC)C(C)C)[nH]4)cc2O3)[nH]1` [Compound 45], the EC50 is under 1 nM.

The values are drawn from patent US9150554B2, “Fused ring inhibitors of hepatitis C” (Presidio Pharmaceuticals, Inc., priority 2009, dated 2015).
